Test results reported in ChEMBL document CHEMBL1126573, “Non-peptide angiotensin II receptor antagonists. 1. Design, synthesis, and biological activity of N-substituted indoles and dihydroindoles” (J Med Chem, 1993).
pIC50: −log10 of the molar value.

Target: T1, Type-1 angiotensin II receptor (Oryctolagus cuniculus, UniProt P34976)
T1 sequence (P34976 whole entry): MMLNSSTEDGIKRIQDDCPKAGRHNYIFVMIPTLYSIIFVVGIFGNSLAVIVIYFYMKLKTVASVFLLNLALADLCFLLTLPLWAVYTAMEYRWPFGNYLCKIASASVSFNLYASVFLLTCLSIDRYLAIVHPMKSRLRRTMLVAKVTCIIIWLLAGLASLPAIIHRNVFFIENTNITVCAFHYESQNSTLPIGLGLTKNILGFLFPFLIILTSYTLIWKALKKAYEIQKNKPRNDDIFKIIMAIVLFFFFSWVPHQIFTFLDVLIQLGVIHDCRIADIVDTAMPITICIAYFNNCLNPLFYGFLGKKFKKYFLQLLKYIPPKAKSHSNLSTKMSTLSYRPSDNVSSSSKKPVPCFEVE
Experiment: In vitro antagonist activity against angiotensin II receptor type 1 in rabbit aorta using [125I]-Sar, Ile AII.
Type: functional, tissue-based

| pIC50 | SMILES |
| --- | --- |
| 6.80 | CCc1nc2c(C)cc(C)nc2n1Cc1ccc2c(ccn2Cc2cccc([N+](=O)[O-])c2C(=O)O)c1 |
| 8.30 | CCc1nc2c(C)cc(C)nc2n1Cc1ccc2c(ccn2C(=O)c2ccccc2-c2nnn[nH]2)c1 |
| 7.70 | CCc1nc2c(C)cc(C)nc2n1Cc1ccc2c(ccn2C(=O)c2ccccc2C(=O)O)c1 |
| 6.11 | CCc1nc2c(C)cc(C)nc2n1Cc1ccc2c(c1)CCN2C(=O)c1ccccc1-c1nnn[nH]1 |
| 7.32 | CCc1nc2c(C)cc(C)nc2n1Cc1ccc2c(c1)CCN2C(=O)c1ccccc1C(=O)O |
| 5.80 | CCc1nc2c(C)cc(C)nc2n1Cc1ccc2c(c1)CCN2C(C#N)c1cccc(C)c1 (stereo unspecified) |
| 5.96 | CCc1nc2c(C)cc(C)nc2n1Cc1ccc2c(c1)CCN2C(C#N)c1ccccc1C (stereo unspecified) |
| 6.77 | CCc1nc2c(C)cc(C)nc2n1Cc1ccc2c(c1)CCN2C(=O)c1cc(Cl)c(Cl)cc1C(=O)O |
| 7.04 | CCc1nc2c(C)cc(C)nc2n1Cc1ccc2c(ccn2C(=O)c2ccccc2NC(=O)O)c1 |
| 6.77 | CCc1nc2c(C)cc(C)nc2n1Cc1ccc2c(c1)CCN2C(C(=O)OC)c1ccccc1 (stereo unspecified) |
| 6.17 | CCc1nc2c(C)cc(C)nc2n1Cc1ccc2c(c1)CCN2C(=O)c1ccccc1C#N |
| 9.00 | CCc1nc2c(C)cc(C)nc2n1Cc1ccc2c(ccn2Cc2c(Cl)cccc2-c2nnn[nH]2)c1 |
| 6.46 | CCc1nc2c(C)cc(C)nc2n1Cc1ccc2c(c1)CCN2C(C#N)c1ccccc1 (stereo unspecified) |
| 7.82 | CCc1nc2c(C)cc(C)nc2n1Cc1ccc2c(ccn2C(=O)c2cc(Cl)c(Cl)cc2C(=O)O)c1 |
| 6.49 | CCc1nc2c(C)cc(C)nc2n1Cc1ccc2c(ccn2Cc2ccccc2C#N)c1 |
| 8.06 | CCc1nc2c(C)cc(C)nc2n1Cc1ccc2c(ccn2Cc2ccccc2-c2nn[nH]n2)c1 |
| 6.92 | CCc1nc2c(C)cc(C)nc2n1Cc1ccc2c(ccn2Cc2c(Cl)cccc2C#N)c1 |
| 6.21 | CCc1nc2c(C)cc(C)nc2n1Cc1ccc2c(ccn2Cc2ccccc2C(=O)OC)c1 |
| 6.60 | CCc1nc2c(C)cc(C)nc2n1Cc1ccc2c(ccn2C(=O)c2ccccc2C#N)c1 |
| 7.74 | CCc1nc2c(C)cc(C)nc2n1Cc1ccc2c(c1)CCN2C(=O)c1c(Cl)ccc(Cl)c1C(=O)O |
| 9.10 | CCc1nc2c(C)cc(C)nc2n1Cc1ccc2c(ccn2C(=O)c2c(Cl)ccc(Cl)c2C(=O)O)c1 |
| 7.09 | CCc1nc2c(C)cc(C)nc2n1Cc1ccc2c(c1)CCN2C(C(=O)O)c1ccccc1 (stereo unspecified) |
| 6.62 | CCc1nc2c(C)cc(C)nc2n1Cc1ccc2c(ccn2C(=O)c2ccccc2)c1 |

Target: T2, Type-2 angiotensin II receptor (Rattus norvegicus, UniProt P35351)
T2 sequence (P35351 whole entry): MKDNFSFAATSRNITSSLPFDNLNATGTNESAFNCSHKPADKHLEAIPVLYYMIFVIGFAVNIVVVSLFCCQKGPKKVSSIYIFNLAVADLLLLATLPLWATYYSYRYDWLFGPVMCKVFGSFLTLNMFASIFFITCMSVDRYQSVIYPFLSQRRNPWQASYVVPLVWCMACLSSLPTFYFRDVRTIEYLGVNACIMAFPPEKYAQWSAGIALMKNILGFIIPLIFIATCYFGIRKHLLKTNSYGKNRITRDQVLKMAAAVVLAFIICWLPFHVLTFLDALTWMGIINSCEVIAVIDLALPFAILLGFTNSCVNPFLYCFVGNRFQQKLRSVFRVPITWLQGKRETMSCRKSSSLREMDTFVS
Experiment: In vitro antagonist activity against angiotensin II receptor type 2 in rat midbrain using [125I]-Sar,Ile AII.
Type: functional

| pIC50 | SMILES |
| --- | --- |
| 4.85 | CCc1nc2c(C)cc(C)nc2n1Cc1ccc2c(ccn2Cc2cccc([N+](=O)[O-])c2C(=O)O)c1 |
| 6.89 | CCc1nc2c(C)cc(C)nc2n1Cc1ccc2c(ccn2C(=O)c2ccccc2-c2nnn[nH]2)c1 |
| 5.18 | CCc1nc2c(C)cc(C)nc2n1Cc1ccc2c(ccn2C(=O)c2ccccc2C(=O)O)c1 |
| < 5.00 | CCc1nc2c(C)cc(C)nc2n1Cc1ccc2c(c1)CCN2C(=O)c1ccccc1-c1nnn[nH]1 |
| 5.00 | CCc1nc2c(C)cc(C)nc2n1Cc1ccc2c(c1)CCN2C(=O)c1ccccc1C(=O)O |
| 4.98 | CCc1nc2c(C)cc(C)nc2n1Cc1ccc2c(c1)CCN2C(C#N)c1cccc(C)c1 (stereo unspecified) |
| 4.89 | CCc1nc2c(C)cc(C)nc2n1Cc1ccc2c(c1)CCN2C(C#N)c1ccccc1C (stereo unspecified) |
| 6.00 | CCc1nc2c(C)cc(C)nc2n1Cc1ccc2c(c1)CCN2C(=O)c1cc(Cl)c(Cl)cc1C(=O)O |
| 4.77 | CCc1nc2c(C)cc(C)nc2n1Cc1ccc2c(ccn2C(=O)c2ccccc2NC(=O)O)c1 |
| 4.80 | CCc1nc2c(C)cc(C)nc2n1Cc1ccc2c(c1)CCN2C(C(=O)OC)c1ccccc1 (stereo unspecified) |
| 4.60 | CCc1nc2c(C)cc(C)nc2n1Cc1ccc2c(c1)CCN2C(=O)c1ccccc1C#N |
| 4.92 | CCc1nc2c(C)cc(C)nc2n1Cc1ccc2c(ccn2Cc2c(Cl)cccc2-c2nnn[nH]2)c1 |
| 4.94 | CCc1nc2c(C)cc(C)nc2n1Cc1ccc2c(c1)CCN2C(C#N)c1ccccc1 (stereo unspecified) |
| 5.72 | CCc1nc2c(C)cc(C)nc2n1Cc1ccc2c(ccn2C(=O)c2cc(Cl)c(Cl)cc2C(=O)O)c1 |
| < 4.52 | CCc1nc2c(C)cc(C)nc2n1Cc1ccc2c(ccn2Cc2ccccc2C#N)c1 |
| < 4.52 | CCc1nc2c(C)cc(C)nc2n1Cc1ccc2c(ccn2Cc2ccccc2C(=O)O)c1 |
| < 4.74 | CCc1nc2c(C)cc(C)nc2n1Cc1ccc2c(ccn2Cc2ccccc2-c2nn[nH]n2)c1 |
| < 4.52 | CCc1nc2c(C)cc(C)nc2n1Cc1ccc2c(ccn2Cc2c(Cl)cccc2C#N)c1 |
| 4.85 | CCc1nc2c(C)cc(C)nc2n1Cc1ccc2c(c1)CCN2C(C#N)c1ccc(C)cc1 (stereo unspecified) |
| 4.68 | CCc1nc2c(C)cc(C)nc2n1Cc1ccc2c(ccn2Cc2ccccc2C(=O)OC)c1 |
| < 4.30 | CCc1nc2c(C)cc(C)nc2n1Cc1ccc2c(ccn2C(=O)c2ccccc2C#N)c1 |
| 5.19 | CCc1nc2c(C)cc(C)nc2n1Cc1ccc2c(c1)CCN2C(=O)c1c(Cl)ccc(Cl)c1C(=O)O |
| < 4.52 | CCc1nc2c(C)cc(C)nc2n1Cc1ccc2c(ccn2Cc2ccccc2NC(=O)OC)c1 |
| 5.57 | CCc1nc2c(C)cc(C)nc2n1Cc1ccc2c(ccn2C(=O)c2c(Cl)ccc(Cl)c2C(=O)O)c1 |
| 4.85 | CCc1nc2c(C)cc(C)nc2n1Cc1ccc2c(c1)CCN2C(C(=O)O)c1ccccc1 (stereo unspecified) |
| 5.05 | CCc1nc2c(C)cc(C)nc2n1Cc1ccc2c(ccn2C(=O)c2ccccc2)c1 |
| < 4.52 | CCc1nc2c(C)cc(C)nc2n1Cc1ccc2c(c1)CCN2C(c1ccccc1)c1nnn[nH]1 (stereo unspecified) |
| < 5.00 | CCc1nc2c(C)cc(C)nc2n1Cc1ccc(-c2ccccc2-c2nnn[nH]2)cc1 [L-158809] |
